Values quoted from earlier work as cited in PMC6269737, “Effect of Honokiol on Cytochrome P450 and UDP-Glucuronosyltransferase Enzyme Activities in Human Liver Microsomes” (Molecules, 2013).

Columns and labels:
CYP2C8 = target: T1, CYP2C8 (Homo sapiens, UniProt P10632); conditions: cited from earlier work
T1 sequence (P10632 1-490): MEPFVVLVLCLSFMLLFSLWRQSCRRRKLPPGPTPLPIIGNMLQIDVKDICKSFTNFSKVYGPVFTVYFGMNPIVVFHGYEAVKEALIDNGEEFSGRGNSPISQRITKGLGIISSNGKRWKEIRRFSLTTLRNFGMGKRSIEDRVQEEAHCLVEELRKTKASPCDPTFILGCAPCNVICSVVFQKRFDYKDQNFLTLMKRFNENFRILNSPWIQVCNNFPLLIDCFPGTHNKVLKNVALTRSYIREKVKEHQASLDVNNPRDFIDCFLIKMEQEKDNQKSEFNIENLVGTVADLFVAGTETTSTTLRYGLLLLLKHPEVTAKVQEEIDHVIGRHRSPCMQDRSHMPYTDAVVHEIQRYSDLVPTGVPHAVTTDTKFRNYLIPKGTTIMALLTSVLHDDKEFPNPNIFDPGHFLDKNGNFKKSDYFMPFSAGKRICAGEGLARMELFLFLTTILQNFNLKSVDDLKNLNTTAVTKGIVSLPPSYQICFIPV

UGT1A9 = target: T2, UGT1A9 (Homo sapiens, UniProt O60656); parameters: method as in PMID 21245288; conditions: selective UGT1A9 inhibitor; cited from earlier work
T2 sequence (O60656 26-530): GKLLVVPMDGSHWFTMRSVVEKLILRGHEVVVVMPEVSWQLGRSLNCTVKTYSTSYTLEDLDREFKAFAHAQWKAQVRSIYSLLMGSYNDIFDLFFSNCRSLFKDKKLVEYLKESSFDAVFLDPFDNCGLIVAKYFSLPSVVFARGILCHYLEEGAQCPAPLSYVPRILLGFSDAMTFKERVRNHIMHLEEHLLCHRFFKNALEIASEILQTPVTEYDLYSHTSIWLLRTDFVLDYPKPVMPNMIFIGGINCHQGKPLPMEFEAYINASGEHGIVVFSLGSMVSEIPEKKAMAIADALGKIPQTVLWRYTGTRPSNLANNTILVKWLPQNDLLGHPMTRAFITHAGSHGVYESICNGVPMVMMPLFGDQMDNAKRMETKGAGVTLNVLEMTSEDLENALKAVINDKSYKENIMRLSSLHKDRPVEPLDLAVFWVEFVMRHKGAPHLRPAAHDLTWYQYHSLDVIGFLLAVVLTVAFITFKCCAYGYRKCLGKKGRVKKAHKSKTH

CYP2C19 = CYP2C19 (Homo sapiens, UniProt P33261); parameters: method as in PMID 23446989; conditions: inhibitory effect towards CYP2C19; cited from earlier work
CYP2C19, sequence (P33261 whole entry): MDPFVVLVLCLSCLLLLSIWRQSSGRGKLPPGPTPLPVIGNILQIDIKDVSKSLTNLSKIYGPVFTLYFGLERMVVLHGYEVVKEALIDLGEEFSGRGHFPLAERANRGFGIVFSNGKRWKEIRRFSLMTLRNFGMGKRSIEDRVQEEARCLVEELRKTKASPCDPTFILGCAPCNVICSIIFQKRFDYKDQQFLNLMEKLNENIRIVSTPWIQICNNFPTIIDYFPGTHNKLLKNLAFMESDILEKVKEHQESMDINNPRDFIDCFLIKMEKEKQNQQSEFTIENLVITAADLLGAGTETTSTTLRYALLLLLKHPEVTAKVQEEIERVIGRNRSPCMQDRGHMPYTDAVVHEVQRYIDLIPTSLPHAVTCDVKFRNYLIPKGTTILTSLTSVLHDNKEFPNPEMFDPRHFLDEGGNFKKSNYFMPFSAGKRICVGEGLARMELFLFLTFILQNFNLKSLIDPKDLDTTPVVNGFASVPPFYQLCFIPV

CYP2C9 = CYP2C9 (Homo sapiens, UniProt P11712); conditions: inhibitory effect towards CYP2C9; cited from earlier work
CYP2C9, sequence (P11712 whole entry): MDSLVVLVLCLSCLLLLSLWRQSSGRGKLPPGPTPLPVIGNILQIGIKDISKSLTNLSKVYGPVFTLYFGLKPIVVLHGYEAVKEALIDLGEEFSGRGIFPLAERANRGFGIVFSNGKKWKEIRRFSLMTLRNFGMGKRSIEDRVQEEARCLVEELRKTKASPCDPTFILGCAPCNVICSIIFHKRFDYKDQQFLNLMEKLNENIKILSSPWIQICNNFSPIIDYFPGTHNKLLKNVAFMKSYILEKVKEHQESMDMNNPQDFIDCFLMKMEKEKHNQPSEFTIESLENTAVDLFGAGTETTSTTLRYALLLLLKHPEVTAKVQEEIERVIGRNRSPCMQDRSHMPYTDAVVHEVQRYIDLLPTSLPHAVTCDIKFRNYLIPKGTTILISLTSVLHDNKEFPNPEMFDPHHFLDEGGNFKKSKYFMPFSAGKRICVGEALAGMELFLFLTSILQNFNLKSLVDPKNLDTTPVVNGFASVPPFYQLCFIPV

CYP1A2 = target: T3, CYP1A2 (Homo sapiens, UniProt P05177); parameters: method as in PMID 23446989; conditions: inhibitory effect towards CYP1A2; cited from earlier work
T3 sequence (P05177 1-516): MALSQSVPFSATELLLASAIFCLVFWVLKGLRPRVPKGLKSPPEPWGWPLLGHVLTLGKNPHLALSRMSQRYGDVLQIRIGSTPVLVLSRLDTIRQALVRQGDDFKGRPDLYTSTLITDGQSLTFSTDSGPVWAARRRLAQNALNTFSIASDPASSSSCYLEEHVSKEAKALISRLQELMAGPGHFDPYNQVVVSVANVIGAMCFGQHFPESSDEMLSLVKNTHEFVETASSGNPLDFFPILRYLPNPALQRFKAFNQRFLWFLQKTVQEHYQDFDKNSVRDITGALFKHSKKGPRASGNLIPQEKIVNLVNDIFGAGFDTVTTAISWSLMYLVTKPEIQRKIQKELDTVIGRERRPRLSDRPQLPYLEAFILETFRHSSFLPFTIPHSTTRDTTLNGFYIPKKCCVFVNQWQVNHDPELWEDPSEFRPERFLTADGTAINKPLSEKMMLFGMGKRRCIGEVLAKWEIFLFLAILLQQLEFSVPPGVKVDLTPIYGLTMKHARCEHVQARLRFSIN

CYP2B6 = target: T4, CYP2B6 (Homo sapiens, UniProt P20813); parameters: method as in PMID 23446989; conditions: inhibitory effect towards CYP2B6; cited from earlier work
T4 sequence (P20813 1-491): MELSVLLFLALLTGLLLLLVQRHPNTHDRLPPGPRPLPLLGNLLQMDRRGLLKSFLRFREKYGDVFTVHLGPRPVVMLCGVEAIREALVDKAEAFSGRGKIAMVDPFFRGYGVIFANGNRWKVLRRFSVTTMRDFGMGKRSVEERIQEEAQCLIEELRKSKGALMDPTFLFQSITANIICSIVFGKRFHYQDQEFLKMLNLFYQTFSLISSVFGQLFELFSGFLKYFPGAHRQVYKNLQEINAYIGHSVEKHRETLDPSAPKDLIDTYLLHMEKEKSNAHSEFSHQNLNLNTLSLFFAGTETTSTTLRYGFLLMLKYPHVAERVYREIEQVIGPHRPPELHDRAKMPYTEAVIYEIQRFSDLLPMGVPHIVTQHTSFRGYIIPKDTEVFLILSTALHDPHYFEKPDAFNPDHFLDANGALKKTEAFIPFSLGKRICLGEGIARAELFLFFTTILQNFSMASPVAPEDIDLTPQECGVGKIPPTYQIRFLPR

## Cc1ccc(C)c(OCCCC(C)(C)C(=O)O[C@@H]2O[C@H](C(=O)O)[C@@H](O)[C@H](O)[C@H]2O)c1 [gemfibrozil glucuronide]
CYP2C8; selective CYP2C8 inhibitor
  Ki: 20 to 52 µM

## O=C(O)c1cccnc1Nc1cccc(C(F)(F)F)c1 [niflumic acid]
UGT1A9
  Ki: 0.1 to 0.4 µM

## C=CCc1ccc(Oc2cc(CC=C)cc(O)c2O)cc1 [obovatol]
CYP2C8; inhibitory effect towards CYP2C8
  IC50: 11.1 µM
CYP2C19
  IC50: 0.8 µM
CYP2C9
  IC50: 3.3 µM
CYP1A2
  IC50: 4.4 µM
CYP2B6
  IC50: 13.9 µM
